According to patent US12180252B2, “Peptide derived from PEP27 peptide and uses thereof” (priority 2021, dated 2024):
Values after ≈ are worked out from the molar mass of the structure shown. Read-outs that look alike come from different tables or passages of the source. Where a SMILES comes first, the peptide text is derived from it.

Tests used:
B. subtilis KCTC1998 = format: cell-based, Bacillus subtilis; details: KCTC1998, 18 h
Experimental: (§1) In order to evaluate the antimicrobial activity of the peptides prepared by the method of above 1, a minimal inhibitory concentration (MIC) value as the minimum concentration of a peptide, in which cells are not divided, was measured.
(§2) Specifically, the strains shown in Table 3 below were purchased, cultured in a medium having a constitutional composition suitable for each strain to a mid-log phase, and then diluted to a concentration of 2×10^4 cells/100 μl to prepare the product on a micro-titration plate (Nunc, USA). Then, PEP27, PEP27-1, PEP27-2 or PEP27-5 peptide synthesized in the above 1 was added to each well by serial dilution ½ times, followed by incubation at 37° C. for 18 hours.

L. monocytogens KCTC3710 = format: cell-based, Listeria monocytogenes; details: KCTC3710, 18 h
Experimental: as §1, §2

E. coli ATCC25922 = format: cell-based, Escherichia coli; details: ATCC25922, 18 h
Experimental: as §1, §2

E. coli ATCC27325 = format: cell-based, Escherichia coli; details: ATCC27325, 18 h
Experimental: as §1, §2

E. coli CCARM1229 = format: cell-based, Escherichia coli; details: E. coli CCARM1229, antibiotics-tolerant; 37° C., 18 hours
Experimental: as §1, §2

E. coli CCARM1238 = format: cell-based, Escherichia coli; details: E. coli CCARM1238, antibiotics-tolerant; 37° C., 18 hours
Experimental: as §1, §2

P. aeruginosa 4007 = assay: microbe, parasite or virus in culture; details: 4007, 18 h
Experimental: as §1, §2
(§3) Specifically, subject strains were prepared by the method of above 2, and were treated with the antibiotics, that is, meropenem, ceftazidime, ceftriaxone or vancomycin, respectively, followed by determining MICs of the antibiotics.

P. aeruginosa 4891 = assay: microbe, parasite or virus in culture; details: 4891, 18 h
Experimental: as §1, §2, §3

P. aeruginosa ATCC15692 = assay: microbe, parasite or virus in culture; details: ATCC15692, 18 h
Experimental: as §1, §2, §3

P. aeruginosa ATCC27853 = assay: microbe, parasite or virus in culture; details: ATCC27853, 18 h
Experimental: as §1, §2, §3

S. aureus ATCC25923 = assay: microbe, parasite or virus in culture; details: ATCC25923, 18 h
Experimental: as §1, §2, §3

S. aureus ATCC29213 = assay: microbe, parasite or virus in culture; details: ATCC29213, 18 h
Experimental: as §1, §2, §3

S. aureus CCARM3089 = assay: microbe, parasite or virus in culture; details: S. aureus CCARM3089, antibiotics-tolerant; 37° C., 18 hours
Experimental: as §1, §2, §3

S. aureus CCARM3090 = assay: microbe, parasite or virus in culture; details: S. aureus CCARM3090, antibiotics-tolerant; 37° C., 18 hours
Experimental: as §1, §2, §3

S. aureus CCARM3518 = assay: microbe, parasite or virus in culture; details: S. aureus CCARM3518, antibiotics-tolerant; 37° C., 18 hours
Experimental: as §1, §2, §3

S. aureus MW2 = assay: microbe, parasite or virus in culture; details: S. aureus MW2, antibiotics-tolerant; 37° C., 18 hours
Experimental: as §1, §2, §3

S. aureus USA300 = assay: microbe, parasite or virus in culture; details: S. aureus USA300, antibiotics-tolerant; 37° C., 18 hours
Experimental: as §1, §2, §3

[1] = tested on: Sa. typhimurium CCARM8007; format: cell-based, Salmonella typhimurium; details: Sa. typhimurium CCARM8007, antibiotics-tolerant; 37° C., 18 hours
Experimental: as §1, §2

[2] = tested on: Sa. typhimurium CCARM8009; format: cell-based, Salmonella typhimurium; details: Sa. typhimurium CCARM8009, antibiotics-tolerant; 37° C., 18 hours
Experimental: as §1, §2

Sa. typhimurium KCTC1926 = format: cell-based, Salmonella typhimurium; details: KCTC1926, 18 h
Experimental: as §1, §2

[3] = tested on: red blood cells of a rat (Balb/c); details: 37° C., 1 hour
Experimental: In order to compare the cytotoxicity of the peptides prepared by the method of above 1, erythrocyte hemolytic activity of each of the synthesized peptides was measured.
Specifically, red blood cells of a rat (Balb/c, 6 weeks old, female) were diluted with PBS (pH 7.0) to a concentration of 8%, and PEP27, PEP27-1, PEP27-2 and PEP27-5 peptides were used for treatment of the cells at concentrations of 3.13, 6.25, 12.5, 25.01 50.0 and 100.0 μM/well, respectively, followed by reaction at 37° C. for 1 hour. Then, an amount of hemoglobin contained in the supernatant obtained by centrifugation at 1,000×g was determined by measuring the absorbance at a wavelength of 414 nm. As a control which is a standard for the degree of cell destruction, the absorbance of the obtained supernatant was measured after treatment using 1% Triton X-100 (Sigma, USA) and reaction at 37° C. for 1 hour. With reference to 100% erythrocytes hemolysis activity, hemolysis of each peptide was calculated from the measured absorbance using Equation 1 below. Erythrocyte destruction ability (%)=(Absorbance A−Absorbance B)/(Absorbance C−Absorbance B)×100 [Equation 1]
(wherein, absorbance A represents the absorbance of a reaction solution treated with each peptide measured at a wavelength of 414 nm; absorbance B represents the absorbance of a reaction solution treated with PBS measured at a wavelength of 414 nm; and absorbance C represents the absorbance of a reaction solution treated with 1% Triton X-100 measured at a wavelength of 414 nm).

HaCaT and MCF-7 cells = assay: MTT cytotoxicity; format: cell-based, human; details: 100 μM, 24 h, MTT, HaCaT and MCF-7 cells
Experimental: (§4) Specifically, Thiazolyl blue tetrazolium bromide (MTT, Merck KGaA) was used to determine the cytotoxicity of PEP27 and its analogs against HaCaT (human keratinocyte […], n=4 per condition) and MCF-7 (human breast adenocarcinoma, n=3 per condition) cells. The cells were cultured in Dulbecco's modified Eagle's medium (DMEM) supplemented with 10 heat-inactivated fetal bovine serum (FBS, Gibco, Grand Island, NY, USA) and 1% penicillin-streptomycin (Gibco) at a density of 2×10^4 cells/well (96-well plate). Peptides were then added at various concentrations and incubated for 24 h at 37° C., after which MTT (final concentration, 0.5 mg/mL) was added to each well and incubated for 4 h. The formazan product was solubilized in DMSO, and the absorbance at 570 nm was measured to […] cytotoxicity. Cells treated with 0.1% Triton X-100 were used as the 100% cytotoxic control sample.

MTT cytotoxicity = format: cell-based, human; details: human; 100 μM, 24 h, MTT, HaCaT and MCF-7 cells; read-out: cell viability
Experimental: as §4

[4] = Peptide concentration 100 μM, 100% = 1% Triton X-100

Row | Structure (SMILES) | Minimal inhibitory concentration (B. subtilis KCTC1998) | Minimal inhibitory concentration (L. monocytogens KCTC3710) | Minimal inhibitory concentration (E. coli ATCC25922) | Minimal inhibitory concentration (E. coli ATCC27325) | Minimal inhibitory concentration (E. coli CCARM1229) | Minimal inhibitory concentration (E. coli CCARM1238) | Minimal inhibitory concentration (P. aeruginosa 4007) | Minimal inhibitory concentration (P. aeruginosa 4891) | Minimal inhibitory concentration (P. aeruginosa ATCC15692) | Minimal inhibitory concentration (P. aeruginosa ATCC27853) | Minimal inhibitory concentration (S. aureus ATCC25923) | Minimal inhibitory concentration (S. aureus ATCC29213) | Minimal inhibitory concentration (S. aureus CCARM3089) | Minimal inhibitory concentration (S. aureus CCARM3090) | Minimal inhibitory concentration (S. aureus CCARM3518) | Minimal inhibitory concentration (S. aureus MW2) | Minimal inhibitory concentration (S. aureus USA300) | Minimal inhibitory concentration [1] | Minimal inhibitory concentration [2] | Minimal inhibitory concentration (Sa. typhimurium KCTC1926) | other results
1 | CSCC[C@H](N)C(=O)N[C@@H](Cc1c[nH]c2ccccc12)C(=O)N[C@@H](CCCCN)C(=O)N[C@@H](Cc1c[nH]c2ccccc12)C(=O)N[C@@H](Cc1ccccc1)C(=O)N[C@@H](Cc1c[nH]cn1)C(=O)N[C@@H](CC(N)=O)C(=O)N[C@H](C(=O)N[C@@H](CC(C)C)C(=O)N[C@@H](CO)C(=O)N[C@@H](CO)C(=O)NCC(=O)N[C@@H](CCC(N)=O)C(=O)N[C@@H](CC(C)C)C(=O)N[C@@H](CC(C)C)C(=O)N[C@@H](C)C(=O)N[C@@H](CC(=O)O)C(=O)N[C@@H](CCCCN)C(=O)N[C@@H](CCCNC(=N)N)C(=O)N1CCC[C@H]1C(=O)N[C@@H](C)C(=O)N[C@@H](CCCNC(=N)N)C(=O)N[C@@H](CC(=O)O)C(=O)N[C@@H](Cc1ccc(O)cc1)C(=O)N[C@@H](CC(N)=O)C(=O)N[C@@H](CCCNC(=N)N)C(=O)N[C@@H](CCCCN)C(N)=O)C(C)C [PEP27-1] (H-MWKWFHNVLSSGQLLADKRPARDYNRK-NH2) | 32 µM (≈ 106 µg/mL) | 64 µM (≈ 212 µg/mL) | 64 µM (≈ 212 µg/mL) | 32 µM (≈ 106 µg/mL) | 32 µM (≈ 106 µg/mL) | 32 µM (≈ 106 µg/mL) | 32 µM (≈ 106 µg/mL) | 32 µM (≈ 106 µg/mL) | 32 µM (≈ 106 µg/mL) | 32 µM (≈ 106 µg/mL) | 32 µM (≈ 106 µg/mL) | 32 µM (≈ 106 µg/mL) | 32 µM (≈ 106 µg/mL) | 16 µM (≈ 53.1 µg/mL) | 32 µM (≈ 106 µg/mL) | 32 µM (≈ 106 µg/mL) | 32 µM (≈ 106 µg/mL) | 32 µM (≈ 106 µg/mL) | 32 µM (≈ 106 µg/mL) | 32 µM (≈ 106 µg/mL) | Erythrocyte destruction ability ([3]; Peptide concentration 3.13 μM): 0%; Erythrocyte destruction ability ([3]; Peptide concentration 6.25 μM): 1.05%; Erythrocyte destruction ability ([3]; Peptide concentration 12.5 μM): 1.97%; Erythrocyte destruction ability ([3]; Peptide concentration 25 μM): 25.75%; Erythrocyte destruction ability ([3]; Peptide concentration 50 μM): 44.51%; Erythrocyte destruction ability [3, 4]: 50.65%; cell viability (HaCaT and MCF-7 cells): 41%-42%
2 | CSCC[C@H](N)C(=O)N[C@@H](Cc1c[nH]c2ccccc12)C(=O)N[C@@H](CCCCN)C(=O)N[C@@H](Cc1c[nH]c2ccccc12)C(=O)N[C@@H](Cc1ccccc1)C(=O)N[C@@H](Cc1c[nH]cn1)C(=O)N[C@@H](CC(N)=O)C(=O)N[C@H](C(=O)N[C@@H](CC(C)C)C(=O)N[C@@H](CO)C(=O)N[C@@H](CO)C(=O)NCC(=O)N[C@@H](CCC(N)=O)C(=O)N[C@@H](CC(C)C)C(=O)N[C@@H](CC(C)C)C(=O)N[C@@H](C)C(=O)N[C@@H](CC(=O)O)C(=O)N[C@@H](CCCCN)C(=O)N[C@@H](Cc1c[nH]c2ccccc12)C(=O)N[C@@H](Cc1c[nH]c2ccccc12)C(=O)N[C@@H](C)C(=O)N[C@@H](Cc1c[nH]c2ccccc12)C(=O)N[C@@H](Cc1c[nH]c2ccccc12)C(=O)N[C@@H](Cc1ccc(O)cc1)C(=O)N[C@@H](CC(N)=O)C(=O)N[C@@H](Cc1c[nH]c2ccccc12)C(=O)N[C@@H](Cc1c[nH]c2ccccc12)C(N)=O)C(C)C [PEP27-5] (H-MWKWFHNVLSSGQLLADKWWAWWYNWW-NH2) | >64 µM | >64 µM | >64 µM | >64 µM | >64 µM | >64 µM | >64 µM | >64 µM | >64 µM | >64 µM | >64 µM | >64 µM | >64 µM | >64 µM | >64 µM | >64 µM | >64 µM | >64 µM | >64 µM | >64 µM | Erythrocyte destruction ability ([3]; Peptide concentration 3.13 μM): 0%; Erythrocyte destruction ability ([3]; Peptide concentration 6.25 μM): 0%; Erythrocyte destruction ability ([3]; Peptide concentration 12.5 μM): 0%; Erythrocyte destruction ability ([3]; Peptide concentration 25 μM): 0%; Erythrocyte destruction ability ([3]; Peptide concentration 50 μM): 2.34%; Erythrocyte destruction ability [3, 4]: 3.25%; viability at 24 h, 100 µM (MTT cytotoxicity): 100%
